Converted amounts (≈) assume the structure as drawn.
Assays:
[1] = test system: newly emerged larvae of blowfly, Lucilia sericata; experiment: Efficacy against blowfly larvae on treated filter paper discs; settings: for LC50: Lucilia sericata
Method: In this evaluation, filter paper discs are treated with an acetone solution of test compound and allowed to dry.

adult fleas = experiment: Efficacy against adult fleas on beagles, full body spray; format: in vivo; settings: full body spray 0.40% (wt/vol), Compound A 20 mg/kg, Standard 14.5 mg/kg body wt.
Method: In this evaluation twelve beagles are each infested with 100 unfed adult fleas. Each dog is assessed for its ability to retain fleas by a comb count taken 24 hours post infestation. The dogs are blocked by these flea counts and randomly assigned to one of four treatment groups. Test compounds are applied as a full body spray of a 0.40% (wt/vol) solution of test compound in a mixture of 1% Miglyol in N-methyl-2-pyrrolidinone. One day prior to treatment each dog is infested with 100 fleas and one day post treatment the dogs are comb counted to check for knockdown efficacy. The dogs were subsequently re-infested with fleas and comb counted 24 hours later at weekly intervals.

SMILES: N#Cc1nn(-c2c(Cl)cc(C(F)(F)F)cc2Cl)c(N)c1[S+]([O-])C(F)(F)F (centres unmarked) [Standard, fipronil]
- LC50 ([1]; 24 h): 0.1 µg/mL (≈ 0.229 µM)
- LC50 ([1]; 48 h): 0.07 µg/mL (≈ 0.16 µM)
- LC99 ([1]; mortality at 24 h): 0.40 µg/mL
- LC99 ([1]; mortality at 48 h): 0.30 µg/mL
- % Efficacy relative to nontreated control (adult fleas; 1 DAT): 100%
- % Efficacy relative to nontreated control (adult fleas; 7 DAT): 100%
- % Efficacy relative to nontreated control (adult fleas; 14 DAT): 100%
- % Efficacy relative to nontreated control (adult fleas; 21 DAT): 100%
- % Efficacy relative to nontreated control (adult fleas; 28 DAT): 100%
- % Efficacy relative to nontreated control (adult fleas; 35 DAT): 100%
- % Efficacy relative to nontreated control (adult fleas; 42 DAT): 100%
- % Efficacy relative to nontreated control (adult fleas; 49 DAT): 100%
- % Efficacy relative to nontreated control (adult fleas; 56 DAT): 100%
- % Efficacy relative to nontreated control (adult fleas; 62 DAT): 99.5%

From patent US7906128B2, “Use of neuronal sodium channel antagonists for the control of ectoparasites in homeothermic animals” (priority 2003, dated 2011)
